Reference: patent publication US20250197358A1, “PESTICIDALLY ACTIVE THIOSEMICARBAZONE COMPOUNDS” (BASF SE, priority 2022, published 2025)

Columns and labels:
Experiment in all cases: whole plant or invertebrate
Type in all cases: in vivo
[1] = test system: tobacco budworm (Heliothis virescens); conditions: 120 h, egg and larval mortality after 5 days, read-out: mortality in comparison with untreated controls
Method: For evaluating control of tobacco budworm (Heliothis virescens) the test unit consisted of 96-well-microtiter plates containing an insect diet and 15-25 H. virescens eggs.
Different concentrations of formulated compounds were sprayed onto the insect diet at 10 μl, using a custom-built micro atomizer, at two replications.
After application, microtiter plates were incubated at about 28+1° C. and about 80+5% relative humidity for 5 days. Egg and larval mortality were then visually assessed.

[2] = test system: yellow fever mosquito (Aedes aegypti); conditions: 48 h, larval mortality after 2 days, read-out: mortality in comparison with untreated controls
Method: Example B1: Action on Yellow Fever Mosquito (Aedes aegypti)
For evaluating control of yellow fever mosquito (Aedes aegypti) the test unit consisted of 96-well-microtiter plates containing 200 μl of tap water per well and 5-15 freshly hatched A. aegypti larvae.
The active compounds or mixtures were formulated using a solution containing 75% (v/v) water and 25% (v/v) DMSO. Different concentrations of formulated compounds or mixtures were sprayed onto the insect diet at 2.5 μl, using a custom built micro atomizer, at two replications. For experimental mixtures in these tests identical volumes of both mixing partners at the desired concentrations respectively, were mixed together.
After application, microtiter plates were incubated at 28±1° C., 80±5% RH for 2 days. Larval mortality was then visually assessed.

[3] = test system: orchid thrips (Dichromothrips corbetti); conditions: adult thrips, 72 hours after treatment, read-out: mortality in comparison with untreated controls
Method: Dichromothrips corbetti adults used for bioassay were obtained from a colony maintained continuously under laboratory conditions. For testing purposes, the test compound is diluted in a 1:1 mixture of acetone:water (vol:vol), plus Kinetic® HV at a rate of 0.01% v/v.
Thrips potency of each compound was evaluated by using a floral-immersion technique. All petals of individual, intact orchid flowers were dipped into treatment solution and allowed to dry in Petri dishes. Treated petals were placed into individual re-sealable plastic along with about 20 adult thrips. All test arenas were held under continuous light and a temperature of about 28° C. for duration of the assay. After 3 days, the numbers of live thrips were counted on each petal. The percent mortality was recorded 72 hours after treatment.

[4] = test system: diamond back moth (Plutella xylostella); conditions: in Brassica oleracea, foliar, 3rd instar larvae, 72 hours after treatment, read-out: mortality in comparison with untreated controls
Method: Surfactant (Kinetic® HV) is added at a rate of 0.01% (v/v). The test solution is prepared at the day of use.
Leaves of cabbage were dipped in test solution and air-dried. Treated leaves were placed in petri dishes lined with moist filter paper and inoculated with ten 3rd instar larvae. Mortality was recorded 72 hours after treatment. Feeding damages were also recorded using a scale of 0-100%.

[5] = test system: boll weevil (Anthonomus grandis); conditions: 120 h, egg and larval mortality after 5 days, read-out: mortality in comparison with untreated controls
[6] = test system: southern armyworm (Spodoptera eridania); conditions: in Phaseolus lunatus, 96 h, 2nd instar larvae, 4 days after treatment, read-out: mortality in comparison with untreated controls
Method: The 10,000 ppm solution was serially diluted in 100% cyclohexanone to make interim solutions. These served as stock solutions for which final dilutions were made by the Tecan in 50% acetone:50% water (v/v) into 10 or 20 ml glass vials. A nonionic surfactant (Kinetic®) was included in the solution at a volume of 0.01% (v/v). The vials were then inserted into an automated electrostatic sprayer equipped with an atomizing nozzle for application to plants/insects.
Lima bean plants (variety Sieva) were grown 2 plants to a pot and selected for treatment at the 1st true leaf stage. Test solutions were sprayed onto the foliage by an automated electrostatic plant sprayer equipped with an atomizing spray nozzle. The plants were dried in the sprayer fume hood and then removed from the sprayer. Each pot was placed into perforated plastic bags with a zip closure. About 10 to 11 armyworm larvae were placed into the bag and the bags zipped closed. Test plants were maintained in a growth room at about 25° C. and about 20-40% relative humidity for 4 days, avoiding direct exposure to fluorescent light (24 hour photoperiod) to prevent trapping of heat inside the bags. Mortality and reduced feeding were assessed 4 days after treatment, compared to untreated control plants.

Structure (SMILES)	mortality at 800 ppm [1] [%]	mortality at 800 ppm [2] [%]	mortality at 500 ppm [3] [%]	mortality at 500 ppm [4] [%]	mortality at 800 ppm [5] [%]	mortality at 300 ppm [6] [%]
CC(=O)OCS/C(=N\N=C\c1ccc(-c2nn(C)c(NC(=O)c3ccc(OC(F)(F)F)cc3)c2C#N)cc1)Nc1cc(C)ccc1C(C)C [Compound C-7, [(Z)—N′-[(E)-[4-[4-cyano-1-methyl-5-[[4-(trifluoromethoxy)benzoyl]amino]pyrazol-3-yl]phenyl]methyleneamino]-N-(2-isopropyl-5-methylphenyl)carbamimidoyl]sulfanylmethyl acetate]	≥ 75	≥ 50	≥ 75	≥ 75	≥ 75	≥ 75
Cc1ccc(C(C)C)c(N/C(=N/N=C/c2ccc(-c3nn(C)c(NC(=O)c4ccc(OC(F)(F)F)cc4)c3C#N)cc2)SCOC(=O)C(C)C)c1 [Compound C-8, [(Z)—N′-[(E)-[4-[4-cyano-1-methyl-5-[[4-(trifluoromethoxy)benzoyl]amino]pyrazol-3-yl]phenyl]methyleneamino]-N-(2-isopropyl-5-methylphenyl)carbamimidoyl]sulfanylmethyl 2-methylpropanoate]	≥ 75	≥ 50	≥ 75	≥ 75	≥ 75	≥ 75
